According to paper PMC9856672, “SGC-CAMKK2-1: A Chemical Probe for CAMKK2” (Cells, 2023):

Columns and labels:
DAPK1 = target: T1, DAPK1 (Homo sapiens, UniProt P53355); assay: KINOMEscan at 1 μM, DAPK1; type: binding; conditions: 1000 nM, read-out: Percent Control
T1 construct: purchased Eurofins DiscoverX KINOMEscan
Description: (§1) Supplement cells-12-00287-s001.zip/File S2. KinomeScan data for the CAMKK2 probe and negative control.xlsx, sheet "SGC-CAMKK2-1N" | column: Percent Control

PKN2 = target: T2, PKN2 (Homo sapiens, UniProt Q16513); assay: KINOMEscan at 1 μM, PKN2; type: binding; conditions: 1000 nM, read-out: Percent Control
T2 construct: purchased Eurofins DiscoverX KINOMEscan
Description: as §1

GAK = target: T3, GAK (Homo sapiens, UniProt O14976); assay: KINOMEscan at 1 μM, GAK; type: binding; conditions: 1000 nM, read-out: Percent Control
T3 construct: purchased Eurofins DiscoverX KINOMEscan
Description: as §1

MEK3 = target: T4, MEK3 (Homo sapiens, UniProt P46734); assay: KINOMEscan at 1 μM, MEK3; type: binding; conditions: 1000 nM, read-out: Percent Control
T4 construct: purchased Eurofins DiscoverX KINOMEscan
T4 sequence (P46734 whole entry): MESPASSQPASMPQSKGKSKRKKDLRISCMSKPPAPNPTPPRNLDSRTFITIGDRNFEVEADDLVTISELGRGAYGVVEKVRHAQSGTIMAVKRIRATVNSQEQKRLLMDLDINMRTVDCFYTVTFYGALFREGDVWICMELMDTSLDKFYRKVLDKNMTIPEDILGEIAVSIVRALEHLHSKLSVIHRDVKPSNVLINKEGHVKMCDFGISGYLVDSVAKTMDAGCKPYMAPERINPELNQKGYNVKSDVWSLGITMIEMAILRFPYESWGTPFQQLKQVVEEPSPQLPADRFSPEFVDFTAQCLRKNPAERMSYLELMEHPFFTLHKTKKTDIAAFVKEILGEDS
Description: as §1

EPHA2 = target: T5, EPHA2 (Homo sapiens, UniProt P29317); assay: KINOMEscan at 1 μM, EPHA2; type: binding; conditions: 1000 nM, read-out: Percent Control
T5 construct: purchased Eurofins DiscoverX KINOMEscan
Description: as §1

WEE1 = target: T6, WEE1 (Homo sapiens, UniProt P30291); assay: KINOMEscan at 1 μM, WEE1; type: binding; conditions: 1000 nM, read-out: Percent Control
T6 construct: purchased Eurofins DiscoverX KINOMEscan
Description: as §1

MUSK = target: T7, MUSK (Homo sapiens, UniProt O15146); assay: KINOMEscan binding assay at 1 μM, MUSK; conditions: Compound Concentration 1000 nM; read-out: Percent Control
T7 construct: purchased Eurofins DiscoverX KINOMEscan
Description: as §1

RIPK2 = target: T8, RIPK2 (Homo sapiens, UniProt O43353); assay: KINOMEscan at 1 μM, RIPK2; type: binding; conditions: 1000 nM, read-out: Percent Control
T8 construct: purchased Eurofins DiscoverX KINOMEscan
Description: as §1

TTK = target: T9, TTK (Homo sapiens, UniProt P33981); assay: KINOMEscan at 1 μM, TTK; type: binding; conditions: 1000 nM, read-out: Percent Control
T9 construct: purchased Eurofins DiscoverX KINOMEscan
Description: as §1

PKMYT1 = target: T10, PKMYT1 (Homo sapiens, UniProt Q99640); assay: KINOMEscan at 1 μM, PKMYT1; type: binding; conditions: 1000 nM, read-out: Percent Control
T10 construct: purchased Eurofins DiscoverX KINOMEscan
T10 sequence (Q99640 whole entry): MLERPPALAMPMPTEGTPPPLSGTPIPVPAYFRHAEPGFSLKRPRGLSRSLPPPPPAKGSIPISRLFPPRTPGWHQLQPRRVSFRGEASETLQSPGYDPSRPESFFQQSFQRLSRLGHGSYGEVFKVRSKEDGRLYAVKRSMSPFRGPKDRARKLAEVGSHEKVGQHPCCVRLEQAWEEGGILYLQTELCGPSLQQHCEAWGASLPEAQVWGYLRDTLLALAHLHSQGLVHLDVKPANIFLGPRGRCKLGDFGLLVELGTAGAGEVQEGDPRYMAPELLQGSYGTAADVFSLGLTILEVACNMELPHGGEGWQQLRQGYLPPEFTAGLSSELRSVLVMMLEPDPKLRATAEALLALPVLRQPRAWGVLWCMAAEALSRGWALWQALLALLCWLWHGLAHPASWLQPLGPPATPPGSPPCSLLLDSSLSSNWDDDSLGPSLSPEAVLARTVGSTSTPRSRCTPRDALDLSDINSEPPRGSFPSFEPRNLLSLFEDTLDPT
Description: as §1

PIK3CA = target: T11, PIK3CA (Homo sapiens, UniProt P42336); assay: KINOMEscan at 1 μM, PIK3CA; type: binding; conditions: 1000 nM, read-out: Percent Control
T11 construct: purchased Eurofins DiscoverX KINOMEscan
Description: as §1

ARK5 = target: T12, ARK5 (Homo sapiens, UniProt O60285); assay: KINOMEscan at 1 μM, ARK5; type: binding; conditions: 1000 nM, read-out: Percent Control
T12 construct: purchased Eurofins DiscoverX KINOMEscan
T12 sequence (O60285 whole entry): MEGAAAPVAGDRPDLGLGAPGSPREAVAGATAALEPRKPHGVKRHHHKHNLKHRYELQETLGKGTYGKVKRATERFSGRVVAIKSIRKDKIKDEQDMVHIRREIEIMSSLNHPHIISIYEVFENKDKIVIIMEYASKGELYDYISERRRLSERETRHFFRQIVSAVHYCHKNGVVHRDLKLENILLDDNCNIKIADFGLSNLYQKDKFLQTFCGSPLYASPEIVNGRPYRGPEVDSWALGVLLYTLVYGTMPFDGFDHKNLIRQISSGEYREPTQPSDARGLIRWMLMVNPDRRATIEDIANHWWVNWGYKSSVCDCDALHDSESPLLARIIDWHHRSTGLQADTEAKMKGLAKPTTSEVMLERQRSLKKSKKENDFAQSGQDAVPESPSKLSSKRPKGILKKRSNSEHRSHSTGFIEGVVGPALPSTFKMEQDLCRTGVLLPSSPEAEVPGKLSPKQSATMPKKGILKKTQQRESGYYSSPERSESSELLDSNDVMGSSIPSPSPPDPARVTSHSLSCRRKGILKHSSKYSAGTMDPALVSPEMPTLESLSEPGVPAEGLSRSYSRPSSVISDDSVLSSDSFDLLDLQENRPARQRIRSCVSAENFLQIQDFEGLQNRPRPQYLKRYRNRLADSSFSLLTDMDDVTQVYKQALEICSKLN
Description: as §1

ERK8 = target: T13, ERK8 (Homo sapiens, UniProt Q8TD08); assay: KINOMEscan at 1 μM, ERK8; type: binding; conditions: 1000 nM, read-out: Percent Control
T13 construct: purchased Eurofins DiscoverX KINOMEscan
T13 sequence (Q8TD08 whole entry): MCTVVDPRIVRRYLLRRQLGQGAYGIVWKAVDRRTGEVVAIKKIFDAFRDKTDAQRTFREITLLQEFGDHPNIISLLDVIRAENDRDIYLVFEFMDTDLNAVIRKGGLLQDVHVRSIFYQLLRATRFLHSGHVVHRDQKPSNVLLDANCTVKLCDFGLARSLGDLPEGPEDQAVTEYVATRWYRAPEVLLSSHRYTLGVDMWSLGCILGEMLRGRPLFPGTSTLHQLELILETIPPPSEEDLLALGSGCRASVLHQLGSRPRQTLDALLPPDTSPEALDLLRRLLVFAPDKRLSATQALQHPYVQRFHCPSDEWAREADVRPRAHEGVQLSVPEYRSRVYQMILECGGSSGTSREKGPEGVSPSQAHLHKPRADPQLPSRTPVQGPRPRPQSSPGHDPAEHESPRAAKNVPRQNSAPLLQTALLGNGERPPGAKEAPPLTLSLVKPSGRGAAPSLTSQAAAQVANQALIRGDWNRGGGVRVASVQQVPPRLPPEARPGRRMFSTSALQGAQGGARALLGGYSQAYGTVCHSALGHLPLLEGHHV
Description: as §1

CDK2 = target: T14, CDK2 (Homo sapiens, UniProt P24941); assay: KINOMEscan at 1 μM, CDK2; type: binding; conditions: 1000 nM, read-out: Percent Control
T14 construct: purchased Eurofins DiscoverX KINOMEscan
Description: as §1

PAK6 = target: T15, PAK6 (Homo sapiens, UniProt Q9NQU5); assay: KINOMEscan at 1 μM, PAK6; type: binding; conditions: 1000 nM, read-out: Percent Control
T15 construct: purchased Eurofins DiscoverX KINOMEscan
T15 sequence (Q9NQU5 whole entry): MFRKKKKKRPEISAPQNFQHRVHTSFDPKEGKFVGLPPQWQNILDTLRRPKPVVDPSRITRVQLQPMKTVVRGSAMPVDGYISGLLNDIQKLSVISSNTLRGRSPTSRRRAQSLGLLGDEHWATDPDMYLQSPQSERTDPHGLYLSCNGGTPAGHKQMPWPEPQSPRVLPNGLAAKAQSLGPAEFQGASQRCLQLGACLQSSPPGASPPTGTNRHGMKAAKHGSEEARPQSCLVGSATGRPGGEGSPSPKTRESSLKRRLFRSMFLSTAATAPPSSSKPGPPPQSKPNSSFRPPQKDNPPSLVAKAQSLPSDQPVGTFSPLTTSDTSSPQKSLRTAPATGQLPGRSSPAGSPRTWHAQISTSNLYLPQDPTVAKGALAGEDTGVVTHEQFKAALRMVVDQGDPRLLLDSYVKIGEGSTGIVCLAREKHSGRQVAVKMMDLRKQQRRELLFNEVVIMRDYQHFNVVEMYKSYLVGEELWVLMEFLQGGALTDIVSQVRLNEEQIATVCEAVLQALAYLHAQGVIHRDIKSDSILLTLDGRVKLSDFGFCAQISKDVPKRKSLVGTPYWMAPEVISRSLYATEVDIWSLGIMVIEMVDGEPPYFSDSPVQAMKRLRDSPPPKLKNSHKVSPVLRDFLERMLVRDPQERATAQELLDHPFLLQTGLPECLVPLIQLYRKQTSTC
Description: as §1

EGFR(L747-T751del,Sins) = assay: KINOMEscan binding assay at 1 μM, EGFR(L747-T751del,Sins); parameters: species or system human; conditions: Compound Concentration 1000 nM
Description: as §1

EGFR(L858R,T790M) = target: T16, EGFR(L858R,T790M) (Homo sapiens, UniProt P00533, L858R/T790M); assay: KINOMEscan at 1 μM, EGFR(L858R,T790M); type: binding; conditions: 1000 nM, read-out: Percent Control
T16 construct: purchased Eurofins DiscoverX KINOMEscan
Description: as §1

DAPK2 = target: T17, DAPK2 (Homo sapiens, UniProt Q9UIK4); assay: KINOMEscan at 1 μM, DAPK2; type: binding; conditions: 1000 nM, read-out: Percent Control
T17 construct: purchased Eurofins DiscoverX KINOMEscan
T17 sequence (Q9UIK4 whole entry): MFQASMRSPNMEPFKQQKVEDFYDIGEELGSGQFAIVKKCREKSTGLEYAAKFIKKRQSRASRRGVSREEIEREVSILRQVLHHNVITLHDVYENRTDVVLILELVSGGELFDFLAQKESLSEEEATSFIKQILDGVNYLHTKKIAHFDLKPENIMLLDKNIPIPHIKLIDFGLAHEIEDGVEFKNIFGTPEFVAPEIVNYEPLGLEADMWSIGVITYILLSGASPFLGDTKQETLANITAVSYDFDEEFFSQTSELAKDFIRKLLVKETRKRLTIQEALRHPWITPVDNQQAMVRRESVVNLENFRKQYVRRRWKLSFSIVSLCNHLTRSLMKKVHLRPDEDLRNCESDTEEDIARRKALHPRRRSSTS
Description: as §1

[1] = target: T18, JAK1(JH1domain-catalytic) (Homo sapiens, UniProt P23458); assay: KINOMEscan at 1 μM, JAK1(JH1domain-catalytic); type: binding; conditions: 1000 nM, read-out: Percent Control
T18 construct: JAK1(JH1domain-catalytic); purchased Eurofins DiscoverX KINOMEscan
Description: as §1

ALK(L1196M) = target: T19, ALK(L1196M) (Homo sapiens, UniProt Q9UM73, L1196M); assay: KINOMEscan at 1 μM, ALK(L1196M); type: binding; conditions: 1000 nM, read-out: Percent Control
T19 construct: purchased Eurofins DiscoverX KINOMEscan
Description: as §1

TAOK3 = target: T20, TAOK3 (Homo sapiens, UniProt Q9H2K8); assay: KINOMEscan 1 μM, TAOK3; type: binding; conditions: 1000 nM; Entrez TAOK3; read-out: Percent Control
T20 construct: purchased Eurofins DiscoverX KINOMEscan
Description: (§2) Supplement cells-12-00287-s001.zip/File S2. KinomeScan data for the CAMKK2 probe and negative control.xlsx, sheet "SGC-CAMKK2-1" | column: Percent Control

TAK1 = target: T21, TAK1 (Homo sapiens, UniProt O43318); assay: KINOMEscan 1 μM, TAK1; type: binding; conditions: 1000 nM; Entrez MAP3K7; read-out: Percent Control
T21 construct: purchased Eurofins DiscoverX KINOMEscan
Description: as §2

GSK3A = target: T22, GSK3A (Homo sapiens, UniProt P49840); assay: KINOMEscan 1 μM, GSK3A; type: binding; conditions: 1000 nM; Entrez GSK3A; read-out: Percent Control
T22 construct: purchased Eurofins DiscoverX KINOMEscan
T22 sequence (P49840 whole entry): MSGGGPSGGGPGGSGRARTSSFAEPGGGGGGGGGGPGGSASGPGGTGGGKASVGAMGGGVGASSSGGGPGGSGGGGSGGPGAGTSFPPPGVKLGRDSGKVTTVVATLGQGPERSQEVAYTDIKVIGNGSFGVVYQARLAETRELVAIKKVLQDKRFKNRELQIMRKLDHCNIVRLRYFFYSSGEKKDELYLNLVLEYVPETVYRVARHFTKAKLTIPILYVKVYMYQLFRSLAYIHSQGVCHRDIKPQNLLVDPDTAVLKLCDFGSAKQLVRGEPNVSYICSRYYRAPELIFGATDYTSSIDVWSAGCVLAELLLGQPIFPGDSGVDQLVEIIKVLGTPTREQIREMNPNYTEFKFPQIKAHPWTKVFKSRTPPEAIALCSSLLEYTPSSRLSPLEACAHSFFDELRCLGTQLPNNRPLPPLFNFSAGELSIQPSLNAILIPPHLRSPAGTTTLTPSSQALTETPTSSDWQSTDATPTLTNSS
Description: as §2

BRAF(V600E) = target: T23, BRAF(V600E) (Homo sapiens, UniProt P15056, V600E); assay: KINOMEscan 1 μM, BRAF(V600E); type: binding; conditions: 1000 nM; Entrez BRAF; read-out: Percent Control
T23 construct: purchased Eurofins DiscoverX KINOMEscan
Description: as §2

[2] = target: T24, ABL1(T315I)-phosphorylated (Homo sapiens, UniProt P00519, T315I); assay: KINOMEscan 1 μM, ABL1(T315I)-phosphorylated; type: binding; conditions: 1000 nM; Entrez ABL1; read-out: Percent Control
T24 construct: purchased Eurofins DiscoverX KINOMEscan
Description: as §2

[3] = target: T25, ABL1(F317I)-phosphorylated (Homo sapiens, UniProt P00519, F317I); assay: KINOMEscan 1 μM, ABL1(F317I)-phosphorylated; type: binding; conditions: 1000 nM; Entrez ABL1; read-out: Percent Control
T25 construct: purchased Eurofins DiscoverX KINOMEscan
Description: as §2

MST1R = target: T26, MST1R (Homo sapiens, UniProt Q04912); assay: KINOMEscan 1 μM, MST1R; type: binding; conditions: 1000 nM; Entrez MST1R; read-out: Percent Control
T26 construct: purchased Eurofins DiscoverX KINOMEscan
Description: as §2

IRAK1 = target: T27, IRAK1 (Homo sapiens, UniProt P51617); assay: KINOMEscan 1 μM, IRAK1; type: binding; conditions: 1000 nM; Entrez IRAK1; read-out: Percent Control
T27 construct: purchased Eurofins DiscoverX KINOMEscan
Description: as §2

[4] = target: T28, ABL1(Y253F)-phosphorylated (Homo sapiens, UniProt P00519, Y253F); assay: KINOMEscan 1 μM, ABL1(Y253F)-phosphorylated; type: binding; conditions: 1000 nM; Entrez ABL1; read-out: Percent Control
T28 construct: purchased Eurofins DiscoverX KINOMEscan
Description: as §2

YANK1 = target: T29, YANK1 (Homo sapiens, UniProt Q8WU08); assay: DiscoverX KINOMEscan binding assay at 1 μM, YANK1; conditions: YANK1 (STK32A); Compound Concentration 1000 nM; read-out: Percent Control
T29 construct: purchased Eurofins DiscoverX KINOMEscan
Description: as §2

AXL = target: T30, AXL (Homo sapiens, UniProt P30530); assay: KINOMEscan 1 μM, AXL; type: binding; conditions: 1000 nM; Entrez AXL; read-out: Percent Control
T30 construct: purchased Eurofins DiscoverX KINOMEscan
T30 sequence (P30530 26-894): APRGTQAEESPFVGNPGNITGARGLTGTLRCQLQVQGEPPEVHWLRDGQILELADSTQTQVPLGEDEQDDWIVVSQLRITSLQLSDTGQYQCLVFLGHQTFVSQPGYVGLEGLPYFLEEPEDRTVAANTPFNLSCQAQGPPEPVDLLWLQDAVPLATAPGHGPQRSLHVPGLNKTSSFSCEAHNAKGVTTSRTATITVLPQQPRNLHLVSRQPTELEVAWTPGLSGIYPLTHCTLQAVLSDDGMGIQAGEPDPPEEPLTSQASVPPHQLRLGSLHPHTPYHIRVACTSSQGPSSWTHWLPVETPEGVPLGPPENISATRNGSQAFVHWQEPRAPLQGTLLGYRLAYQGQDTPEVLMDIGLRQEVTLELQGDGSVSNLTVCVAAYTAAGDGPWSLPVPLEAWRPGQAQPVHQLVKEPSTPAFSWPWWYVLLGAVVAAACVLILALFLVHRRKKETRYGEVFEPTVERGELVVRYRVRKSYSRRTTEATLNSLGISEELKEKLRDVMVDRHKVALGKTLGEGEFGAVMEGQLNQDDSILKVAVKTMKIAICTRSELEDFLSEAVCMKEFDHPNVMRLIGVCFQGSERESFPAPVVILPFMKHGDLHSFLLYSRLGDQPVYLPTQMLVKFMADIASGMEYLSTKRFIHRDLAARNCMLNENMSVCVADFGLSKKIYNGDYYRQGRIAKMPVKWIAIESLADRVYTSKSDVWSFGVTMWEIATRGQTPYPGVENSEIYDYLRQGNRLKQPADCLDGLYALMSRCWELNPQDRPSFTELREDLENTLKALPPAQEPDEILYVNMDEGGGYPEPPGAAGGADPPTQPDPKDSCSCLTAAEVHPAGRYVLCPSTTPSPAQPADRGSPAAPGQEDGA
Description: as §2

NDR1 = target: T31, NDR1 (Homo sapiens, UniProt Q15208); assay: KINOMEscan 1 μM, NDR1; type: binding; conditions: 1000 nM; Entrez STK38; read-out: Percent Control
T31 construct: purchased Eurofins DiscoverX KINOMEscan
T31 sequence (Q15208 whole entry): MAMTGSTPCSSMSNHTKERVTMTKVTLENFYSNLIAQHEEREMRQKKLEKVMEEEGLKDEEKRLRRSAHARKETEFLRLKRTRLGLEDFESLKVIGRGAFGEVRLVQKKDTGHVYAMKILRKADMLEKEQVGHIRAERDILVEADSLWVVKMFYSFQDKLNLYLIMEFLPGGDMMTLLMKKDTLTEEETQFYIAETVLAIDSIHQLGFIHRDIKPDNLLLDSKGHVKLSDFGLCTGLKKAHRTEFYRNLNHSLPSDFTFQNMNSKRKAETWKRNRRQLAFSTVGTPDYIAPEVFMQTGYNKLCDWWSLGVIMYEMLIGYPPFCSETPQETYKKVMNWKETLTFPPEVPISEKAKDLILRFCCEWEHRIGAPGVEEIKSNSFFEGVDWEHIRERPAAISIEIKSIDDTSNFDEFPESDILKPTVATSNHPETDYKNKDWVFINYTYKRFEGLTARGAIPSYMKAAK
Description: as §2

WEE2 = target: T32, WEE2 (Homo sapiens, UniProt P0C1S8); assay: DiscoverX KINOMEscan binding assay at 1 μM, WEE2; conditions: Compound Concentration 1000 nM, read-out: Percent Control
T32 construct: purchased Eurofins DiscoverX KINOMEscan
Description: as §2

MRCKA = target: T33, MRCKA (Homo sapiens, UniProt Q5VT25); assay: KINOMEscan 1 μM, MRCKA; type: binding; conditions: 1000 nM; Entrez CDC42BPA; read-out: Percent Control
T33 construct: purchased Eurofins DiscoverX KINOMEscan
Description: as §2

O=C(O)c1ccc(-c2coc3ncc(-c4ccccc4)cc23)cc1Cl [SGC-CAMKK2-1N (UNC-YL-83)]
remaining binding at 1 µM (DAPK1): 100%
remaining binding at 1 µM (PKN2): 83%
remaining binding at 1 µM (GAK): 88%
remaining binding at 1 µM (MEK3): 89%
remaining binding at 1 µM (EPHA2): 76%
remaining binding at 1 µM (WEE1): 84%
remaining binding at 1 µM (MUSK): 100%
remaining binding at 1 µM (RIPK2): 99%
remaining binding at 1 µM (TTK): 54%
remaining binding at 1 µM (PKMYT1): 94%
remaining binding at 1 µM (PIK3CA): 74%
remaining binding at 1 µM (ARK5): 84%
remaining binding at 1 µM (ERK8): 86%
remaining binding at 1 µM (CDK2): 91%
remaining binding at 1 µM (PAK6): 63%
Percent Control (EGFR(L747-T751del,Sins)): 100%
remaining binding at 1 µM (EGFR(L858R,T790M)): 83%
remaining binding at 1 µM (DAPK2): 70%
remaining binding at 1 µM [1]: 82%
remaining binding at 1 µM (ALK(L1196M)): 92%

Cc1cccc(-c2cnc3occ(-c4ccc(C(=O)O)c(C5CCCC5)c4)c3c2)c1 [SGC-CAMKK2-1 (YL-36)]
remaining binding at 1 µM (TAOK3): 97%
remaining binding at 1 µM (TAK1): 91%
remaining binding at 1 µM (GSK3A): 92%
remaining binding at 1 µM (BRAF(V600E)): 100%
remaining binding at 1 µM [2]: 100%
remaining binding at 1 µM [3]: 100%
remaining binding at 1 µM (MST1R): 86%
remaining binding at 1 µM (IRAK1): 100%
remaining binding at 1 µM [4]: 73%
remaining binding at 1 µM (YANK1): 100%
remaining binding at 1 µM (AXL): 100%
remaining binding at 1 µM (NDR1): 100%
remaining binding at 1 µM (WEE2): 100%
remaining binding at 1 µM (MRCKA): 100%
